Test results from patent US20160250253A1, “STRONTIUM-CONTAINING COMPLEXES FOR TREATING GASTROESOPHAGEAL REFLUX AND BARRETT'S ESOPHAGUS” (priority 2013, published 2016).

Legend:
ulcer = conditions: cited from earlier work
Helicobacter pylori = conditions: cited from earlier work
KCa 3.1 = KCa 3.1 (Homo sapiens, UniProt O15554); conditions: cited from earlier work
cancer cell lines = conditions: series of cancer cell lines; cited from earlier work
acid-induced pain = assay: Double blind study of glycolic acid induced pain on the forearm; format: in vivo, human; conditions: 25% glycolic acid with or without 250 millimolar gallic acid, topical on forearm, pain rated 0-4 every minute for 10 minutes
Description: Briefly, in a double blind study, 25% glycolic acid solutions with or without 250 millimolar of gallic acid were applied to an 2×8 inch area of the forearm of the study participants. The pain level was assessed at time of application and every minute thereafter for 10 minutes. Study participants rated the pain levels on a 0-4 scale where 0 was no pain; 1 was slight pain; 2 was mild pain; 3 was moderate pain; and 4 was unbearable pain.

[1] = test system: esophageal cancer cells (TE-2); conditions: cited from earlier work
pain of sore throat = assay: Sore throat pain after gargling; format: in vivo; conditions: within several minutes after gargling, clinical observations
Excerpt: Since acidic material from the stomach is what causes the burning pain and inflammation in GER, it is hypothesized that strontium would be effective in treating GER.

[2] = oral, 680 mg of elemental strontium per day; cited from earlier work
[3] = test system: TCN activation by highly acidic chemical peels; assay: Burning pain from 70% glycolic acid, pH 0.6, applied to the skin; format: in vivo, human; conditions: strontium mixed with 70% glycolic acid
Description: Nociceptors also have a CaSR that inhibits nociceptor activation when the extracellular concentration of calcium is raised above normal, or if a similar concentration of strontium is administered. […] When strontium is mixed with the acid, burning pain and stinging is suppressed by 80% or more so that any remaining sensory irritation is not bothersome.

[4] = test system: TCN activation by highly acidic chemical peels; conditions: topically applied, 70% glycolic acid, pH 0.6 on the skin, previous studies; cited from earlier work
Type C nociceptors = assay: Substance P release by Type C nociceptors, unpublished animal studies; format: in vivo
Excerpt: As mentioned above, acid from the stomach activates many pathways that trigger pain and inflammation such as the release of substance P, neurokinin A, and CGRP. […] While the precise molecular mechanism by which strontium inhibits substance P release is unknown, it is believed that the release of substance P, neurokinin A and CGRP occur together and by the same or similar trigger mechanism.

synaptotagmin-1 = conditions: strontium substitutes for calcium; cited from earlier work
[5] = test system: burning pain due to 1% lactic acid; assay: Burning pain from 1% lactic acid instilled on the conjunctiva of the eye; format: in vivo; conditions: 1% lactic acid on the conjunctiva, pilot studies in humans
[6] = test system: histamine-induced itching; conditions: topical; cited from earlier work
CICR pathway = conditions: cited from earlier work

SMILES: O=C(O)C=Cc1ccccc1 [cinnamic acid]
- ulcer-preventing properties (ulcer): ulcer-preventing properties
- H. pylori growth (Helicobacter pylori): inhibition of H. pylori growth

SMILES: O=C(O)c1cc(O)c(O)c(O)c1 [gallic acid, 3,4,5-trihydroxybenzoic acid]
- block of KCa 3.1 (KCa 3.1): does not block
- cell proliferation (cancer cell lines): significant inhibition of cell proliferation
- acid induced pain (acid-induced pain): effective in reducing or preventing the acid induced pain
- ulcer-preventing properties (ulcer): ulcer-preventing properties
- H. pylori growth (Helicobacter pylori): inhibition of H. pylori growth
- apoptosis [1]: induced apoptosis

SMILES: [Cl-].[Cl-].[Sr+2] [strontium chloride solution, strontium chloride]
- pain of sore throat (pain of sore throat): greatly relieved, if not eliminated

SMILES: N#Cc1c(N(CC(=O)[O-])CC(=O)[O-])sc(C(=O)[O-])c1CC(=O)[O-].[Sr+2].[Sr+2] [strontium ranelate]
- fraction absorbed by the GI tract into the blood [2]: approximately 25%

SMILES: [Sr+2] [strontium]
- suppression of burning pain and stinging [3]: ≥ 80%
- intense burning pain [4]: virtually abolish
- substance P release (Type C nociceptors): inhibit substance P release
- fraction absorbed by the GI tract into the blood [2]: approximately 25%
- reduction of amplitude of synchronous neurotransmitter release (synaptotagmin-1): > 90%
- burning pain [5]: inhibit burning pain
- injected histamine-induced itching [6]: significantly inhibited
- ability to induce CICR relative to calcium (CICR pathway): over a hundred-fold less active than calcium
- concentration in the ER relative to calcium (CICR pathway; greater than calcium): more than 150%
